The term pIC50 denotes the negative decadic logarithm of the IC50, by convention in mol/L. For orientation: IC50 means the concentration that inhibits the measured activity by half.

pIC50: −log10 of the molar value. Like-named read-outs stand apart in the source and are kept apart here.

For one data set, the system named is 786-O. The data set can be described thus: Cell proliferation (Alamar Blue) assay, 786-O renal cell carcinoma, with/without ferrostatin. The format is cell-based. Particulars: Homo sapiens, 786-0, Cell Line 786-O; read-out: IC50. As to the method: (§1) Cell viability assay was performed to assess the potency of the compounds in human cancer cell lines 786-O (renal cell carcinoma) and SJSA-1 (osteosarcoma). Additional cell lines, such as those described above in Example 4 as well as various others, e.g., pancreatic cancer cell lines (Panc 02.13, BxPC-3, Panc 12, Panc 02.03, Panc 6.03, PSN-1, HPAC, and Capan-1) and prostate cancer cell lines (PC-3, DU145, 22Rv1, NCI-H660, BPH1, LNCaP, BM-1604, and MDA PCa 2b), were tested for select compounds as shown in Table 25.
(§2) Cells (SJSA-1, 786-O and A431) were seeded (5000 cells/100 μL/well) in 96-well tissue culture plate and incubated at 37° C./5% CO2 for 16-24 hours. The cells were then treated with compounds (25 μL of 5×). The compound concentrations were 10-0.0005 μM prepared in 3-fold serial dilutions with final DMSO concentration of 1%. The plates were then incubated for 24 h at 37° C./5% CO2 in a moist environment. Then Alamar Blue™ reagent (final concentration 1×-12.5 μL) was added to each well and incubated for 1.5 hours at 37° C./5% CO2. The plates were read on fluorescence reader at 540 nm excitation and 590 nm emission wavelengths. The IC50 values were subsequently determined using a sigmoidal dose-response curve (variable slope) in GraphPad Prism® 5 software.
(§3) Studies have shown that lipophilic antioxidants, such as ferrostatin, can rescue cells from GPX4 inhibition-induced ferroptosis. For instance, mesenchymal state GPX4-knockout cells can survive in the presence of ferrostatin, however, when the supply of ferrostatin is terminated, these cells undergo ferroptosis (see, e.g., Viswanathan et al., Nature 547:453-7, 2017). […] Accordingly, the ability of a molecule to induce ferroptotic cancer cell death, and that such ability is admonished by the addition of ferrostatin, is clear indication that the molecule is an GPX4 inhibitor.
In general terms: Alamar Blue is a resazurin reagent that responds to reducing activity.

For a further data set, the system named is A549. The data set can be described thus: Cell viability assay, A549 cells. Type of data set: cell-based. The settings on record: read-out: IC50. As to the method: Example 5: Inducer Compound Effect on Growth of A549 and KP4 Cells
Cell viability assay was performed to assess the potency of the compounds in cancer cell line KP4 (pancreatic ductal adenocarcinoma). Cells at a density of 1,000-10,000 cells/well were seeded in 96-well plates and incubated at 37° C. overnight. A series of 9 different concentrations of compound stocks (500×) were created by 3-fold serial dilution in DMSO. These compounds were further diluted in culture media and then added to cells so that the final DMSO concentration was equal to 0.25% or less. After 96 hours of incubation, 50 μL of CellTiter Glo reagent (Promega) was added to each well and luminescence was measured after 10 minutes using EnVision (PerkinElmer). All compounds were tested initially from 30 μM as the top concentration in duplicates (range of 4.6 nM-30 μM). […] Luminescence from cells treated with DMSO alone was set as Max and % of inhibition was calculated as follows: Inhibition %=(Max-Sample value)/Max*100. Data was analyzed using XL-fit software (ID Business Solutions Ltd.). IC50, relative IC50, or % of top inhibition was calculated. […]

A further data set deals with SJSA-1. The data set can be described thus: Cell proliferation (Alamar Blue) assay, SJSA-1 osteosarcoma, with/without ferrostatin. The format is cell-based, human. Particulars: read-out: IC50. As to the method:
as §1, §2, §3

The nature of data set [1]: Whole blood stability, human. The format is in vitro ADME. An excerpt:
(§4) The results of the assay on stability in blood and IC50 values for pancreatic cancer cell line KP4 are given below in Table 24.

A short description of data set [2]: Whole blood stability, mouse. The format is in vitro ADME.
Excerpt: as §4

The test system of the next data set is KP4. The data set can be described thus: Cell viability assay (CellTiter Glo), pancreatic ductal adenocarcinoma KP4. Particulars: Homo sapiens, KP-4, 96 h, pancreatic cancer cell line KP4, 96 hours, CellTiter Glo; read-out: IC50 μM KP4. Type of data set: cell-based, human. In outline:
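Luminescent ATP readout (CellTiter Glo) after 96 h compound exposure, normalized to DMSO-treated cells as maximum. Compounds ran in duplicate, nine 3-fold steps from 30 μM down to 4.6 nM, final DMSO ≤0.25%; KP4 plated overnight at 1,000–10,000 cells/well. Outputs: IC50, relative IC50 or % top inhibition.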

The mark [3] stands for this setting: Homo sapiens, A549, Cell Line A549.
[4] abbreviates: Homo sapiens, SJSA-1, Cell Line SJSA-1.

`C#CC(=O)N1[C@@H](c2ccc(F)cc2)c2[nH]c3ccccc3c2C[C@@H]1C#N` [Compound 190]: the pIC50 in the data set on 786-O was 5.92; with A549 (setting [3]), 5.52; with SJSA-1 (setting [4]), 6.04.

As to `C#CC(=O)N1[C@@H](c2c(F)cc(F)cc2F)c2[nH]c3ccccc3c2C[C@@H]1C` [Compound 197], the values for the pIC50 in the data set on 786-O, in the data set on A549 (setting [3]) and in the data set on SJSA-1 (setting [4]) were 6.88, 5.25 and 7.99, respectively.

Take `C#CC(=O)N1[C@@H](c2ccc(C3CCOCC3)cc2)c2[nH]c3ccccc3c2C[C@@H]1C` [Compound 192]: the pIC50 in the data set with 786-O was 6.71; in the data set on A549 (setting [3]), 4.85; with SJSA-1 (setting [4]), 6.92.

For the molecule `C#CC(=O)N1[C@@H](c2ccc(F)c(F)c2)c2[nH]c3ccccc3c2C[C@@H]1C` [Compound 199], the pIC50 is 6.28 with 786-O, 4.71 with A549 (setting [3]) and 6.47 with SJSA-1 (setting [4]).

Consider `C#CC(=O)N1[C@@H](c2ccc(F)cc2)c2[nH]c3ccccc3c2C[C@@H]1C` [Compound 206], for which the pIC50 is 5.96 in the data set with 786-O, 4.66 with A549 (setting [3]) and 6.33 in the data set with SJSA-1 (setting [4]).

Turning to `C#CC(=O)N1[C@@H](CCCC)Cc2c([nH]c3c(F)cc(CO)cc23)[C@@H]1c1ccc(F)cc1` [Compound 134], the pIC50 in the data set on 786-O was 5.09; with A549 (setting [3]), < 4.52; in the data set on SJSA-1 (setting [4]) it was 6.84.

For `C#CC(=O)N1[C@@H](CCCC)Cc2c([nH]c3ccccc23)[C@@H]1C12CC(F)(C1)C2` [Compound 154], the pIC50 was 6.93 with 786-O, 5.10 in the data set with A549 (setting [3]) and 6.97 in the data set on SJSA-1 (setting [4]).

Consider `C#CC(=O)N1[C@@H](c2ccc(Cl)cc2)c2[nH]c3ccccc3c2C[C@@H]1C` [Compound 196], for which the values for the pIC50 with 786-O, with A549 (setting [3]) and in the data set on SJSA-1 (setting [4]) were 6.57, 4.69 and 6.88, respectively.

Turning to `C[C@H]1Cc2c([nH]c3ccccc23)[C@H](C23CC(F)(C2)C3)N1C(=O)CCl` [Compound 226], the pIC50 with 786-O was 5.90; in the data set on A549 (setting [3]), 5.06; in the data set on SJSA-1 (setting [4]), 5.94.

In the case of `C#CC(=O)N1[C@@H](CCCC)Cc2c([nH]c3ccccc23)[C@@H]1c1ccc(F)cc1` [Compound 205], the results for the pIC50 with 786-O, with A549 (setting [3]) and with SJSA-1 (setting [4]) were 7.21, 5.36 and 7.49, respectively.

As to `COCCOCCOCCOCCOC(=O)[C@H]1Cc2c([nH]c3ccccc23)[C@H](c2ccc(NC34CC5CC(CC(C5)C3)C4)cc2)N1C(=O)CCl` [Example 189], the pIC50 in the data set on A549 (setting [3]) is 5.39; with SJSA-1 (setting [4]), 5.38.

Turning to `C#CC(=O)N1[C@@H](CCCC)Cc2c([nH]c3ccccc23)[C@@H]1c1ccc(N2CCOCC2)cc1` [Compound 216], the pIC50 was 6.47 in the data set with 786-O, 4.65 with A549 (setting [3]) and 6.79 in the data set on SJSA-1 (setting [4]).

Regarding `C=C(F)C(=O)N1[C@@H](CCCC)Cc2c([nH]c3ccccc23)[C@@H]1c1ccc(F)cc1` [Compound 186], the pIC50 with 786-O, with A549 (setting [3]) and in the data set on SJSA-1 (setting [4]) was < 4.52 each time.

For the molecule `C=C(C(=O)N1[C@@H](CCCC)Cc2c([nH]c3ccccc23)[C@@H]1c1ccc(F)cc1)C(F)(F)F` [Compound 184], the pIC50 in the data set on 786-O was 4.91; in the data set with A549 (setting [3]), < 4.52; in the data set on SJSA-1 (setting [4]), 4.79.

Turning to `CC(C)=CC(=O)N1[C@@H](c2ccc(N3CCOCC3)cc2)c2[nH]c3ccccc3c2C[C@@H]1C` [Compound 225], the pIC50 in the data set on 786-O was < 5.00; in the data set with A549 (setting [3]), < 4.52.

`C#CC(=O)N1[C@@H](c2ccc(F)cc2F)c2[nH]c3ccccc3c2C[C@@H]1C` [Compound 200]: the results for the pIC50 in the data set with 786-O, in the data set with A549 (setting [3]) and with SJSA-1 (setting [4]) were 6.15, 4.96 and 6.35, respectively.

In the case of `C#CC(=O)N1[C@@H](c2ccc(C#N)cc2)c2[nH]c3ccccc3c2C[C@@H]1C` [Compound 194], the negative-log IC50 (pIC50) was 6.54 in the data set on 786-O, 4.84 in the data set with A549 (setting [3]) and 6.58 with SJSA-1 (setting [4]).

Regarding `C#CC(=O)N1[C@@H](c2ccc(OC)cc2)c2[nH]c3ccccc3c2C[C@@H]1C` [Compound 193], the pIC50 in the data set with 786-O was 6.65; with A549 (setting [3]) it was 4.88; with SJSA-1 (setting [4]) it was 6.76.

On to `C#CC(=O)N1[C@@H](c2cc(F)cc(F)c2)c2[nH]c3ccccc3c2C[C@@H]1C` [Compound 198], for which the results for the pIC50 in the data set with 786-O, with A549 (setting [3]) and in the data set on SJSA-1 (setting [4]) were 6.74, 4.95 and 7.05, respectively.

As to `C#CC(=O)N1[C@@H](C)Cc2c([nH]c3ccccc23)[C@@H]1C12CC(F)(C1)C2` [Compound 182], the pIC50 in the data set with 786-O was 6.02; in the data set with A549 (setting [3]) it was < 4.52; with SJSA-1 (setting [4]) it was 6.18.

As to `C#CCOc1ccc2[nH]c3c(c2c1)C[C@H](C)N(C(=O)CCl)[C@H]3c1ccc(NC23CC4CC(CC(C4)C2)C3)cc1` [Compound 207], the values for the pIC50 with 786-O, in the data set on A549 (setting [3]) and in the data set on SJSA-1 (setting [4]) were 6.67, 4.88 and 7.06, respectively.

With `CC[C@H]1Cc2c([nH]c3ccccc23)[C@H](c2ccc(N3CCOCC3)cc2)N1C(=O)CCl` [Compound 117], the “Whole Blood Stability % Remaining at 37° C. Human” value in data set [1] (0 min) was found to be 100.0%; in data set [1] (30 min), 80.5%; in data set [1] (60 min), 70.3%. Also, the “Whole Blood Stability % Remaining at 37° C. Mouse” value in data set [2] (0 min) is 100.0%; in data set [2] (30 min), 92.3%; in data set [2] (60 min), 45.8%. Further, the IC50 with KP4 was < 0.01 µM. For the same molecule, in the data set on A549 (setting [3]), the pIC50 is 5.33.

Take `C#CC(=O)N1[C@@H](c2c(F)cccc2F)c2[nH]c3ccccc3c2C[C@@H]1C` [Compound 201]: the pIC50 in the data set with 786-O was 6.19; in the data set on A549 (setting [3]), 4.83; in the data set on SJSA-1 (setting [4]), 6.72.

On to `C#CC(=O)N1[C@@H](CCCCCC)Cc2c([nH]c3ccccc23)[C@@H]1c1ccc(F)cc1` [Compound 176], for which the pIC50 with A549 (Cell Line A549) is 5.38; in the data set on A549 (setting [3]), 5.39; in the data set on SJSA-1 (Cell Line SJSA-1), 6.60; in the data set on SJSA-1 (setting [4]), 6.69.

Regarding `C#CC(=O)N1[C@@H](CCCC)Cc2c([nH]c3ccc(OC)cc23)[C@@H]1c1ccc(F)cc1` [Compound 155], the pIC50 with 786-O was 6.95; in the data set on A549 (setting [3]), 5.07; in the data set on SJSA-1 (setting [4]), 7.09.

Regarding `C#CC(=O)N1[C@@H](c2ccc(Br)cc2)c2[nH]c3ccccc3c2C[C@@H]1C` [Compound 195], the values for the pIC50 in the data set on 786-O, in the data set with A549 (setting [3]) and with SJSA-1 (setting [4]) were 6.40, 4.78 and 6.59, respectively.

With `C=CC(=O)N1[C@@H](CCCC)Cc2c([nH]c3ccccc23)[C@@H]1c1ccc(F)cc1` [Compound 179], the pIC50 is < 4.52 with 786-O, 4.56 in the data set on A549 (setting [3]) and < 4.52 in the data set on SJSA-1 (setting [4]).

On to `C[C@H]1Cc2c([nH]c3ccccc23)[C@H](c2ccc(F)cc2)N1C(=O)CCl` [Compound 221], for which the values for the pIC50 in the data set with 786-O, in the data set with A549 (setting [3]) and in the data set on SJSA-1 (setting [4]) were 6.86, 5.55 and 7.03, respectively.

`CC#CC(=O)N1[C@@H](CCCC)Cc2c([nH]c3ccccc23)[C@@H]1c1ccc(F)cc1` [Compound 180]: the figures for the pIC50 with 786-O, in the data set on A549 (setting [3]) and with SJSA-1 (setting [4]) were < 4.52, 4.55 and < 4.52, respectively.

As for `C#CC(=O)N1[C@@H](c2ccc(F)cc2)c2[nH]c3ccccc3c2C[C@@H]1C1CCCC1` [Compound 177], the negative-log IC50 (pIC50) in the data set with 786-O was 7.10; with A549 (setting [3]), 5.49; with SJSA-1 (setting [4]), 7.17.

The values are drawn from patent US11098040B2, “Compounds and methods of use” (Ferro Therapeutics, Inc., priority 2018, dated 2021).
